Calls of active or inactive are those of the source.
Tests used:
Cytochrome P450 3A4 = Cytochrome P450 3A4 (Homo sapiens, UniProt P08684); settings: Potency;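 note: confirmatory qHTS run detecting inhibitors and substrates of CYP3A4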
Cytochrome P450 2C9 = Cytochrome P450 2C9 (Homo sapiens, UniProt P11712); settings: Potency
[1] = A High Throughput Confirmatory Assay used to Identify Novel Compounds that Inhibit Mycobacterium Tuberculosis in the absence of Glycerol.; format: functional
[2] = microbe, parasite or virus in culture; format: functional; settings: Mycobacterium tuberculosis
Fatty acid synthase [3] = target: T1, Fatty acid synthase (Homo sapiens, UniProt P49327); assay: FAS thioesterase domain inhibitors, dose response, biochemical, endpoint fluorescence intensity, uHTS hits (AID 624327); format: functional;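 note: fluorescence from hydrolysis of an O-methyl fluorescein acyl ester substrate by the enzyme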
Fatty acid synthase [4] = target: T1, Fatty acid synthase; assay: FAS thioesterase domain inhibitors, dose response, biochemical, kinetic fluorescence intensity (AID 624326); format: functional;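 note: rate of fluorescence rise from hydrolysis of a fluorogenic O-methyl fluorescein ester substrate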
[5] = target: Melanin-concentrating hormone receptor 1 (Homo sapiens, UniProt Q99705); assay: Fluorescence-based counterscreen for antagonists of the G-protein coupled receptor 7 (GPR7): cell-based high throughput dose response assay to identify antagonists of the melanin-concentrating hormone receptor 1 (MCHR1).; format: functional
[6] = Luminescence Cell-Based Dose Confirmation HTS to Identify Activators of 5'UTR Stem-Loop Driven Alpha-Synuclein mRNA Translation in H4 Neuroglioblastoma Cells. [Related pubchem assays: 1829 (Project Summary), 1814 (Primary HTS)]; format: functional
[7] = Luminescence Cell-Based Dose Response HTS to Identify Activators of Luciferase Translation or Activity in H4 […] Cells. [Related pubchem assays: 1829 (Project Summary), 1814 (Primary HTS)]; format: functional
H4 = assay: Luminescence Cell-Based Dose Response HTS to Identify Activators of 5'UTR Stem-Loop Driven Prion Protein mRNA Translation in H4 Neuroglioblastoma Cells. [Related pubchem assays: 1829 (Project Summary), 1814 (Primary HTS)]; format: functional; settings: Homo sapiens
[8] = target: C-C chemokine receptor type 6 (Homo sapiens, UniProt P51684); assay: CCR6 receptor antagonists, dose response, cell-based, luminescent beta-arrestin readout (AID 504728); format: functional
Beta-galactosidase = Beta-galactosidase (Escherichia coli, UniProt Q8VNN2); assay: beta-galactosidase enzyme inhibitors and activators, dose response, artefact control for CCR6 antagonist project, biochemical, E. coli enzyme, set 3 (AID 504712); format: functional
[9] = target: Lysosomal acid glucosylceramidase (Homo sapiens, UniProt P04062); assay: Dose response cell-based high throughput screening assay to identify enhancers of beta-glucosidase activity. [Related pubchem assays: 784 ]; format: functional
[10] = inhibitors of Bluetongue virus cytopathic effect, confirmation, arbovirus, BSR cells (AID 1250); format: functional;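 note: protection from viral cytopathic effect measured as cell viability by ATP luminescence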
HeLa = assay: HeLa cell cytotoxicity, dose response, cytotoxicity control, 24 h, cherry-picked samples (AID 504726); format: functional, cell-based; settings: Homo sapiens;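 note: potency for cytotoxicity as loss of luminescence signal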
Vasopressin V1a receptor = Vasopressin V1a receptor (Homo sapiens, UniProt P37288); assay: Counterscreen for Oxytocin Receptor (OXTR) agonists: Fluorescence-based cell-based high throughput dose response assay to identify agonists of the vasopressin 1 receptor (V1R). [Related pubchem assays: 2435 (Primary screen (OXTR agonists in singlicate)), 434991 (Counterscreen (V1R agonists in triplicate)), 2482 (Summary (OXTR agonists)) …; format: functional
Oxytocin receptor = Oxytocin receptor (Homo sapiens, UniProt P30559); assay: Fluorescence-based cell-based high throughput dose response assay for agonists of the Oxytocin Receptor (OXTR). [Related pubchem assays: 2435 (Primary screen (OXTR agonists in singlicate)), 434991 (Counterscreen (V1R agonists in triplicate)), 2482 (Summary (OXTR agonists)), 434963 (Confirmation screen (OXTR agonists in triplicate))]; format: functional
[11] = Luminescence-based dose response cell-based high throughput screening assay for cytotoxic compounds using the IEC-6 intestinal epithelial cell line. [Related pubchem assays: 1858 (Summary AID.), 1825 (Counterscreen.), 1907 (Confirmation screen.)]; format: functional
[12] = HEp-2 cell cytotoxicity, dose response, cytotoxicity control for RSV inhibitor project, HTS (AID 2410); format: functional; settings: human respiratory syncytial virus

T1 sequence (P49327 whole entry, the tested form may be a part): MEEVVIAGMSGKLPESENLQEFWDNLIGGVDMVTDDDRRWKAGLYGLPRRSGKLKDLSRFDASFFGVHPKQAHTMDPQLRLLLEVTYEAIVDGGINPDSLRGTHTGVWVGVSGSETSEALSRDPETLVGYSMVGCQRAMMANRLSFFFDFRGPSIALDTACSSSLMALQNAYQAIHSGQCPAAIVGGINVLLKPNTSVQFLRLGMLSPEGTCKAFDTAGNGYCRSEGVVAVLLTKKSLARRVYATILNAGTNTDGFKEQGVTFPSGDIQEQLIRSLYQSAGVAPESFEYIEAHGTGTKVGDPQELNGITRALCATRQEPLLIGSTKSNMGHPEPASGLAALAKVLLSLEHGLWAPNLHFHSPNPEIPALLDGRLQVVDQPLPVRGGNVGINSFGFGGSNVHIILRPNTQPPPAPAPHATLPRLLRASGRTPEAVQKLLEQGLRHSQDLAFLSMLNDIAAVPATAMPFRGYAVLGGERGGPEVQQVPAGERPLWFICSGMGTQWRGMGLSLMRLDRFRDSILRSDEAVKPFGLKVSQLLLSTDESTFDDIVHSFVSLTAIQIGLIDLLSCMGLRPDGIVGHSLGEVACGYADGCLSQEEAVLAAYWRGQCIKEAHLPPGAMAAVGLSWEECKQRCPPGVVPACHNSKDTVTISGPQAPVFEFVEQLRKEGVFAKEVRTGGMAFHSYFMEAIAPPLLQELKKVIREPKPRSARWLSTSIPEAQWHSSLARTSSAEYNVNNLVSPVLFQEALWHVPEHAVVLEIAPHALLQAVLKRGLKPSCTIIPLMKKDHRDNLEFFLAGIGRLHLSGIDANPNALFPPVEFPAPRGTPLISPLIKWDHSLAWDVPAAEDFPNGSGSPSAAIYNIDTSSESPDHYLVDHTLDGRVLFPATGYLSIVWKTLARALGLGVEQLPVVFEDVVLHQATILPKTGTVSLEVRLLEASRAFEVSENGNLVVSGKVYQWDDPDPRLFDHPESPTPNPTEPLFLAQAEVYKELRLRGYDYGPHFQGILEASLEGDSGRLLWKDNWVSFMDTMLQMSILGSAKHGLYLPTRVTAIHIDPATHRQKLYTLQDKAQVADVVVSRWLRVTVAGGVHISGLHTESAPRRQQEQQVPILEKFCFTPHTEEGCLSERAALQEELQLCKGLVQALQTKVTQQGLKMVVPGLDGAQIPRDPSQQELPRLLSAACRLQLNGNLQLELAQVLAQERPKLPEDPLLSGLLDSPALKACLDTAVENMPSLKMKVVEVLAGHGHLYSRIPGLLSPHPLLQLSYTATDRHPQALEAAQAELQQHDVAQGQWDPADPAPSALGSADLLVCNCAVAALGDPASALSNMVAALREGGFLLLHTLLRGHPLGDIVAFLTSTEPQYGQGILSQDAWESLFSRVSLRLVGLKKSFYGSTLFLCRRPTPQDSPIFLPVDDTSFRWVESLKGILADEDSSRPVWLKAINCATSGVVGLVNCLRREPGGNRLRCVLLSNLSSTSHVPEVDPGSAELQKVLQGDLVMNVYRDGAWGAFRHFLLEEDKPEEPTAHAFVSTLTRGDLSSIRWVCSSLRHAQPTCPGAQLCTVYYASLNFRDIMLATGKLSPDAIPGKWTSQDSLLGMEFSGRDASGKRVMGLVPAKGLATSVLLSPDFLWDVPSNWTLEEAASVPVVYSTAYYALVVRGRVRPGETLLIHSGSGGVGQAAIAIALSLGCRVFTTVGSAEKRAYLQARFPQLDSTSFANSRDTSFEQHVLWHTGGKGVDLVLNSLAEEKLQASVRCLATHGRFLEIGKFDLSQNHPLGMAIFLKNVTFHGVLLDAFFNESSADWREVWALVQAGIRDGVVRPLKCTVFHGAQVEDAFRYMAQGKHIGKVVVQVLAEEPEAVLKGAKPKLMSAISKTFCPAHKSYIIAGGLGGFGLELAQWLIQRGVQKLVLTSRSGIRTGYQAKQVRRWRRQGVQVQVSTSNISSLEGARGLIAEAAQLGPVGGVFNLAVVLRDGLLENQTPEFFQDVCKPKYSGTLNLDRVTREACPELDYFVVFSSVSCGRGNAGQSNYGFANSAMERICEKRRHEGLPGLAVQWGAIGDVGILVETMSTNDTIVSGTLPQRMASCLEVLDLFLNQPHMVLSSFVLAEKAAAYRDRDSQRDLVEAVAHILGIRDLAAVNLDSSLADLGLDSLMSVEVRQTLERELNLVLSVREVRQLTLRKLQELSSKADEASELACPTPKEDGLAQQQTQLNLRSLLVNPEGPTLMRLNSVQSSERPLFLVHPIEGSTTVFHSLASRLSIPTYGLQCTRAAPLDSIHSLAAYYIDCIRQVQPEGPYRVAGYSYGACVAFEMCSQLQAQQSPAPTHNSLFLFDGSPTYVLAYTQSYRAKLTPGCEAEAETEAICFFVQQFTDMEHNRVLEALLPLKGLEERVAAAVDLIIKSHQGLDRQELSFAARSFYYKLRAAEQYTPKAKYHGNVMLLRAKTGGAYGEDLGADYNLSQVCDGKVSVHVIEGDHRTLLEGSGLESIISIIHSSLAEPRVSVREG
Chain of Vasopressin V1a receptor (P37288 whole entry): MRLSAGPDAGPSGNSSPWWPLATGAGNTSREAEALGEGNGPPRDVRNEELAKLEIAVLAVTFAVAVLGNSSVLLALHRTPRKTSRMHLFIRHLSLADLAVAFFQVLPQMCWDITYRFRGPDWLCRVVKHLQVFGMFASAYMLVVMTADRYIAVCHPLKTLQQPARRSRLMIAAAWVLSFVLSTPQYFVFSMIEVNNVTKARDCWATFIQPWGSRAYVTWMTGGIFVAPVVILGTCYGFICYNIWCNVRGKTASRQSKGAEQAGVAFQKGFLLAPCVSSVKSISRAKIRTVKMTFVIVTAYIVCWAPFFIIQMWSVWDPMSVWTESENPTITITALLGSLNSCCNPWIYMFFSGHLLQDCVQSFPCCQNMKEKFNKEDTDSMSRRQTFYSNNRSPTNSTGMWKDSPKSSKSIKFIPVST
Chain of Cytochrome P450 2C9 (P11712 whole entry): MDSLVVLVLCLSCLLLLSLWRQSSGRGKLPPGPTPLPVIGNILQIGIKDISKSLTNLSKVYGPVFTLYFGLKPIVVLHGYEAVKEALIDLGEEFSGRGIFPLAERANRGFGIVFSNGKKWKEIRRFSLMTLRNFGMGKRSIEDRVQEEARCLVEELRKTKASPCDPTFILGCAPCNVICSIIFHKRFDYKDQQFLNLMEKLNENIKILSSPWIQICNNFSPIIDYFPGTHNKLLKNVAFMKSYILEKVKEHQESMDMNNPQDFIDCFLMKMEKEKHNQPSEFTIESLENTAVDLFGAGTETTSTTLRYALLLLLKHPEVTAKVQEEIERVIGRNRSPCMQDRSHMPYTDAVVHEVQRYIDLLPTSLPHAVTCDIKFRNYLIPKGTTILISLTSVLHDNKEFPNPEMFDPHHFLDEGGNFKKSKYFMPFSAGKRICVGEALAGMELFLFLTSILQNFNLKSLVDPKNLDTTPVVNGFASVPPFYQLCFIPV
Chain of C-C chemokine receptor type 6 (P51684 whole entry): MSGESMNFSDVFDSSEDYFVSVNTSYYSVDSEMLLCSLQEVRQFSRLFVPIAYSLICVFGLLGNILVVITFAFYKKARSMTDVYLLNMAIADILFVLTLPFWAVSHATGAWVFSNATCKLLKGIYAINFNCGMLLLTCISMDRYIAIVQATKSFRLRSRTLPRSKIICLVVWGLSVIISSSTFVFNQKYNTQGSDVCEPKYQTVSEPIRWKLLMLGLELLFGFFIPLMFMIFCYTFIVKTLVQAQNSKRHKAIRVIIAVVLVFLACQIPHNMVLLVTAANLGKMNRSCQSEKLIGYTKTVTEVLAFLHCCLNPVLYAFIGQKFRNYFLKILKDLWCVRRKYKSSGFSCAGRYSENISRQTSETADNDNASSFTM
Chain of Cytochrome P450 3A4 (P08684 whole entry): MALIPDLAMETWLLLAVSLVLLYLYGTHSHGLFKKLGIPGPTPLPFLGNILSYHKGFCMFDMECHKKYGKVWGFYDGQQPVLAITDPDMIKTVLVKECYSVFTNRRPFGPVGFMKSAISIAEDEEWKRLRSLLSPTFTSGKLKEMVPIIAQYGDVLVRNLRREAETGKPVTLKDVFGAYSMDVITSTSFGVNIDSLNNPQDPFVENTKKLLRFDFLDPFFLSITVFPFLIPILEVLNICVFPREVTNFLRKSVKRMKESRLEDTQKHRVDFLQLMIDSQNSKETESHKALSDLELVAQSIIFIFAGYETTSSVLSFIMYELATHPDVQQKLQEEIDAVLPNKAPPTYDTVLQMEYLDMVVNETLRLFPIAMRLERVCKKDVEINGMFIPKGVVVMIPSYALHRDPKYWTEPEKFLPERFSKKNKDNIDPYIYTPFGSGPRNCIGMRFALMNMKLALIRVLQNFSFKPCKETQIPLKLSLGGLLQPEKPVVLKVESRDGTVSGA
Chain of Melanin-concentrating hormone receptor 1 (Q99705 whole entry): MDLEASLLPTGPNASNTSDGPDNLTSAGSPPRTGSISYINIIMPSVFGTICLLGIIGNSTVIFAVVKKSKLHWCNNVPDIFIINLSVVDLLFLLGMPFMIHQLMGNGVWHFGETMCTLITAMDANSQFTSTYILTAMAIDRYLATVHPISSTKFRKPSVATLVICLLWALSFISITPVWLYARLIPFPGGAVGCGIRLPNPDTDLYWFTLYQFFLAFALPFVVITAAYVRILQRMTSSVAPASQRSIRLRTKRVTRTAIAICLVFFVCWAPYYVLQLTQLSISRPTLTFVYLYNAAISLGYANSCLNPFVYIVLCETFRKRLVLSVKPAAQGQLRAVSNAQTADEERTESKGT
Chain of Oxytocin receptor (P30559 whole entry): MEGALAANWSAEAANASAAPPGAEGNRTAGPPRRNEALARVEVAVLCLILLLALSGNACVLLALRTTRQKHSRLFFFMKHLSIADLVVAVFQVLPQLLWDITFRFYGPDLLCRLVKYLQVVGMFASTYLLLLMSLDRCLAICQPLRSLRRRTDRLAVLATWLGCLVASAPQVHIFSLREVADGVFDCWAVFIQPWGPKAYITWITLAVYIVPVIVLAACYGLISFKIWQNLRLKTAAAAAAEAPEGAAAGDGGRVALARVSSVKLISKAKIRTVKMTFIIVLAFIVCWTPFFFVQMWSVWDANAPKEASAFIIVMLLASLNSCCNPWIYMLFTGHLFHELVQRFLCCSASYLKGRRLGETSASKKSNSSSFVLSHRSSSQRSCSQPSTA

Question: Which AC50 (Cytochrome P450 3A4) does the source give for CCC12C=C(/C=C/c3ccccc3)C(CC)(C1)C(c1ccccc1)CC2=O (stereo not given) here?
Answer: 6.31 µM (inconclusive)

Question: What about the AC50 (Cytochrome P450 2C9) of the same compound?
Answer: 1.58 µM (inconclusive)

Question: Which IC50 [1] does the source give for Fc1nc(F)c(F)c(NCCCNc2c(F)c(F)nc(F)c2F)c1F here?
Answer: > 100 µM (active)

Question: What about the CC50 [2] of the same compound?
Answer: 24 µM (active)

Question: And the IC50 (Fatty acid synthase [3])?
Answer: 26 µM (inactive)

Question: And the IC50 (Fatty acid synthase [4])?
Answer: 7.19 µM (active)

Question: With COc1ccnc(Oc2ccc(F)cc2)c1C(=O)N=CNOCc1ccc(F)cc1 as the compound, how does the IC50 [5] read?
Answer: 30.3 µM (not active)

Question: For O=C(CSc1nccn1-c1ncc(C(F)(F)F)cc1Cl)c1ccc(Br)cc1, which EC50 [6] is on record?
Answer: 0.247 µM (active)

Question: And the EC50 [7]?
Answer: 0.233 µM (active)

Question: And the EC50 (H4)?
Answer: 7.85 µM (active)

Question: What about the IC50 [8] of the same compound?
Answer: > 66.6 µM (inactive)

Question: What about the IC50 (Beta-galactosidase) of the same compound?
Answer: > 66.6 µM (inactive)

Question: With O=C(NCCCN1CCCC1=O)c1ccc2c(=O)n(Cc3ccco3)c(=S)[nH]c2c1 as the compound, how does the EC50 [9] read?
Answer: > 50 µM (not active)

Question: For CCOC(=O)c1cc2c(N)c(C(=O)c3ccc(Br)cc3)sc2nc1O, which IC50 [10] is on record?
Answer: 34 µM (active)

Question: With Cc1cccc(Nc2nc(N)c([N+](=O)[O-])c(NCc3ccccc3)n2)c1 as the compound, how does the AC50 (HeLa) read?
Answer: 25 µM (active)

Question: With Oc1ccc(Cl)cc1CNCc1ccc(Cl)nc1 as the compound, how does the EC50 (Vasopressin V1a receptor) read?
Answer: 17.5 µM (not active)

Question: What about the EC50 (Oxytocin receptor) of the same compound?
Answer: 19.5 µM (not active)

Question: Which IC50 [11] does the source give for CCN1CCCC1CNC(=O)C1CCN(Cc2nc(-c3cccc(Br)c3)oc2C)CC1 (stereo not given) here?
Answer: 6.51 µM (active)

Question: With c1nc2cc(Cc3ccc4[nH]cnc4c3)ccc2[nH]1 as the compound, how does the CC50 [12] read?
Answer: > 50 µM (active)

Question: What about the IC50 (cells) of the same compound?
Answer: 44.5 µM (active)
